The results in this text go back to patent publication US10350158B2, “2′ fluoro-modified RNAs as immunostimulators” (DUKE UNIVERSITY, priority 2013, dated 2019).

This assay has as its system RIG-I, MDA-5, and PKR. Nature of the assay: Western blot of RNA-sensing PRR expression after transfection. It counts as cell-based, human. The note with it: 24 hours after treatment. The procedure: FIG. 2A is a set of FACS plots showing induction of apoptosis. WM266-4 cells were incubated with either liposome (DF) alone or 5′ppp 2′F 10F-liposome complex (10F/DF). At 5 h after incubation, cells were replenished with fresh culture medium. Cells were then incubated for an additional 48 hours, harvested and analyzed for cell death. FIG. 2B is a set of Western blots showing activation of caspases and PARP after transfection. WM266-4 cells were either mock-treated, treated with the 5′ppp 2′F 10F without the transfection reagent, or with the 5′ppp 2′F 10E-transfection reagent complex at the indicated concentrations (1 μg/ml or 0.5 μg/ml). The activation of caspase-7, -9, and PARP was assessed by western blot using antibodies specific to the activated (cleaved) proteins (24 h after treatment). Staurosporine-treated cells were used as a positive control. […] The growth inhibition was assessed at 72 h after electroporation. […] WM266-4 cells were treated as in (FIG. 2B), and the expression of RIG-I, MDA-5, and PKR was analyzed at 24 hours after treatments. […]
Cell lysates were prepared in 1×RIPA buffer (Sigma) in the presence of the complete protease inhibitor cocktail (Roche). […] When different proteins were sequentially detected on the same membrane, membranes were treated for 8 minutes with Restore Western Blot Stripping Buffer (Thermo Scientific), washed, blocked and probed again, as described above. […]

Molecules are shown by their SMILES.

On to `CN[C@@H]1C[C@H]2O[C@@](C)([C@@H]1OC)n1c3ccccc3c3c4c(c5c6ccccc6n2c5c31)C(=O)NC4` [staurosporine], for which the “induction of RIG-I, MDA-5 and PKR expression” value is “not observed”.
